Measured values from PubChem BioAssay (NCI).
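Method: 48-hour compound exposure of cells in 96-well plates, five concentrations, linear interpolation of endpoints. TGI: total growth inhibition.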

Key:
Assay in all cases: inhibition of tumour cell growth, NCI panel, 48 h
[1] = test system: SF-268 CNS
[2] = test system: HS 578T breast
[3] = test system: SR leukemia
[4] = test system: M14 melanoma
[5] = test system: BT-549 breast
[6] = test system: UACC-257 melanoma
[7] = test system: SF-295 CNS
[8] = test system: MCF7 breast
[9] = test system: HL-60(TB) leukemia
[10] = test system: OVCAR-8 ovarian
[11] = test system: HCC-2998 colon
[12] = test system: HT29 colon
[13] = test system: UACC-62 melanoma
[14] = test system: SK-MEL-5 melanoma
[15] = test system: NCI-H23 lung
[16] = test system: SF-539 CNS
[17] = test system: IGROV1 ovarian
[18] = test system: SK-MEL-28 melanoma
[19] = test system: HCT-15 colon
[20] = test system: SW-620 colon
[21] = test system: SN12C renal
[22] = test system: COLO 205 colon
[23] = test system: HCT-116 colon
[24] = test system: EKVX NSCLC
[25] = test system: K-562 leukemia
[26] = test system: LOX IMVI melanoma
[27] = test system: MDA-MB-435
[28] = test system: PC-3 prostate
[29] = test system: RPMI-8226 leukemia
[30] = test system: ACHN renal
[31] = test system: TK-10 renal
[32] = test system: A549 NSCLC
[33] = test system: MDA-N
[34] = test system: A498 renal
[35] = test system: MALME-3M melanoma
[36] = test system: OVCAR-5 ovarian
[37] = test system: UO-31 renal
[38] = test system: SK-OV-3 ovarian
[39] = test system: CCRF-CEM leukemia
[40] = test system: SNB-19 CNS
[41] = test system: HOP-92 NSCLC
[42] = test system: NCI-H460 lung
[43] = test system: HOP-62 NSCLC
[44] = test system: CAKI-1 renal
[45] = test system: SK-MEL-2 melanoma
[46] = test system: NCI/ADR-RES ovarian
[47] = test system: 786-0 renal
[48] = test system: OVCAR-4 ovarian
[49] = test system: OVCAR-3 ovarian
[50] = test system: U251 CNS
[51] = test system: DU-145 prostate
[52] = test system: RXF 393 renal
[53] = test system: SNB-75 CNS
[54] = test system: MDA-MB-231 breast
[55] = test system: MOLT-4 leukemia
[56] = test system: T-47D breast
[57] = test system: NCI-H226 lung
[58] = test system: NCI-H522 lung
[59] = test system: KM12 colon

CCN(CC)C(=O)Cn1c2c(c3ccccc31)CCCC2
TGI [1]: > 100 µM | TGI [2]: > 100 µM | TGI [3]: > 100 µM | TGI [4]: > 100 µM | TGI [5]: > 100 µM | TGI [6]: > 100 µM | TGI [7]: > 100 µM | TGI [8]: > 100 µM | TGI [9]: > 100 µM | TGI [10]: > 100 µM | TGI [11]: > 100 µM | TGI [12]: > 100 µM | TGI [13]: > 100 µM | TGI [14]: > 100 µM | TGI [15]: > 100 µM | TGI [16]: > 100 µM | TGI [17]: > 100 µM | TGI [18]: > 100 µM | TGI [19]: > 100 µM | TGI [20]: > 100 µM | TGI [21]: > 100 µM | TGI [22]: > 100 µM | TGI [23]: > 100 µM | TGI [24]: > 100 µM | TGI [25]: > 100 µM | TGI [26]: > 100 µM | TGI [27]: > 100 µM | TGI [28]: > 100 µM | TGI [29]: > 100 µM | TGI [30]: > 100 µM | TGI [31]: > 100 µM | TGI [32]: > 100 µM | TGI [33]: > 100 µM | TGI [34]: > 100 µM | TGI [35]: > 100 µM | TGI [36]: > 100 µM | TGI [37]: > 100 µM | TGI [38]: > 100 µM | TGI [39]: > 100 µM | TGI [40]: > 100 µM | TGI [41]: > 100 µM | TGI [42]: > 100 µM | TGI [43]: > 100 µM | TGI [44]: > 100 µM | TGI [45]: > 100 µM | TGI [46]: > 100 µM | TGI [47]: > 100 µM

O=C(O)c1ccccc1C1c2ccccc2Oc2ccccc21
TGI [1]: > 100 µM | TGI [3]: > 100 µM | TGI [4]: > 100 µM | TGI [5]: > 100 µM | TGI [48]: > 100 µM | TGI [6]: > 100 µM | TGI [7]: > 100 µM | TGI [49]: 90.1 µM | TGI [9]: > 100 µM | TGI [10]: > 100 µM | TGI [50]: > 100 µM | TGI [12]: > 100 µM | TGI [13]: > 100 µM | TGI [51]: > 100 µM | TGI [14]: > 100 µM | TGI [52]: > 100 µM | TGI [15]: > 100 µM | TGI [17]: > 100 µM | TGI [18]: > 100 µM | TGI [19]: > 100 µM | TGI [53]: 85.8 µM | TGI [20]: > 100 µM | TGI [21]: > 100 µM | TGI [23]: > 100 µM | TGI [24]: > 100 µM | TGI [25]: > 100 µM | TGI [54]: > 100 µM | TGI [26]: > 100 µM | TGI [55]: > 100 µM | TGI [27]: > 100 µM | TGI [28]: > 100 µM | TGI [29]: > 100 µM | TGI [56]: > 100 µM | TGI [30]: > 100 µM | TGI [31]: > 100 µM | TGI [32]: > 100 µM | TGI [33]: > 100 µM | TGI [34]: 82.1 µM | TGI [35]: > 100 µM | TGI [36]: > 100 µM | TGI [37]: > 100 µM | TGI [39]: > 100 µM | TGI [40]: > 100 µM | TGI [41]: 77.5 µM | TGI [42]: > 100 µM | TGI [43]: > 100 µM | TGI [44]: > 100 µM | TGI [45]: 86.5 µM | TGI [57]: 65.7 µM | TGI [46]: > 100 µM | TGI [58]: > 100 µM | TGI [59]: > 100 µM | TGI [47]: > 100 µM
